≈ marks a conversion by molar mass, not a printed value.
Columns and labels:
Type in all cases: cell-based
[1] = system: platelet aggregation induced by thrombin (Thr) in washed rabbit platelets; test: Inhibition of thrombin-induced aggregation of washed rabbit platelets (turbidimetry, Lumi-aggregometer); settings: Oryctolagus cuniculus, Thr 0.1 U/ml; for activity at 100 µg/mL: 0.05 h, compound 100 μg/ml, preincubated at 37° for 3 min, mean ± SEM (n)
Procedure: (§1) The pharmacological activity of these compounds were determined according to G.V.R. Born by turbidimetry (J. Physiol., 1963, 168, 178). Based on the method, samples were suspended in rabbit platelets which were washed with platelet-rich plasma, the aggregation was then counted by the Lumi-aggregometer (Model 1020, Paytoon, Canada). Formula (I-III) at the concentration of 100 μg/ml are found to inhibit the platelet aggregation perfectly which was induced by arachidonic acid (AA), collagen, ADP, and PAF. Since the structures of these compounds are different from those of known antiplatelet agents, the present invention have the potential for further development.
1. Bovine thrombin, from the Parke Davis Co., was dissolved in 50% (v/v) glycerol for a stock solution of 100 NIH units/mL.
(§2) Platelet suspension was prepared from EDTA-anticoagulated Platelet-rich plasma according to washing procedures described previously (Teng, C. M. et. al., Thromb Haemost 59, 304, 1991). Platelets were counted by Hemalaser 2 (Sebia, France) and adjusted to a concentration of 4.5×10^8 platelets/mL. Platelet pellets were finally suspended in Tyrode's buffer (pH 7.4) of the following composition: NaCl (136.8 mM), KCl (2.8 mM), NaHCO3 (11.9 mM), MgCl2 (2.1 mM), NaH2 PO4 (0.33 mM), CaCl2 (1 mM), glucose (11.2 mM) containing 0.35% bovine serum albumin.
(§3) Aggregation was measured by the turbidimetry method as described by O'Brien (J Clin Pathol 15, 452, 1962). ATP released from platelets was detected by the bioluminescence method of DeLuca and McElory (Methods Enzymol 57, 3, 1978). Both aggregation and ATP release were measured simultaneously in a Lumi-aggregometer (model 1020B, Payton, Canada) connected to two dt/al-channel recorders. Platelet preparations were stirred at 900 rpm. When DMSO was used as solvent, its final concentration was fixed at 0.5% (v/v) to eliminate the effect of the solvent. For the calculation of percentage aggregation, the absorbance of platelet suspension was designated as 0% aggregation and the absorbance of platelet-free Tyrode's solution as 100% aggregation. The antiplatelet effects were shown in Table 1 and the inhibitory concentrations for 50% aggregation (IC50) were expressed in Table 2.

[2] = system: platelet aggregation induced by arachidonic acid (AA) in washed rabbit platelets; test: Inhibition of arachidonic acid-induced aggregation of washed rabbit platelets (turbidimetry, Lumi-aggregometer); settings: Oryctolagus cuniculus; for activity at 100 µg/mL: 0.05 h, AA 100 μM, compound 100 μg/ml, preincubated at 37° for 3 min, mean ± SEM (n); for IC50: AA 100 μg/ml
Procedure: as §1
4. AA (arachidonic acid), purchased from Sigma, was dissolved in deionized water.
as §2, §3

[3] = system: platelet aggregation induced by collagen (Col) in washed rabbit platelets; test: Inhibition of collagen-induced aggregation of washed rabbit platelets (turbidimetry, Lumi-aggregometer); settings: Oryctolagus cuniculus, Col 10 μg/ml; for activity at 100 µg/mL: 0.05 h, compound 100 μg/ml, preincubated at 37° for 3 min, mean ± SEM (n)
Procedure: as §1
2. Collagen (type I: bovine Achilles tendon), from the Sigma Chemical Co., was homogenized in 25 mM acetic acid and stored (1 mg/mL) at -70° C.
as §2, §3

[4] = system: platelet aggregation induced by platelet-activating factor (PAF) in washed rabbit platelets; test: Inhibition of PAF-induced aggregation of washed rabbit platelets (turbidimetry, Lumi-aggregometer); settings: Oryctolagus cuniculus, PAF 2 nM
Procedure: as §1
3. PAF (1-O-alkyl-2-acetyl-sn-glycerol-3-phosphorylcholine), purchased from Sigma, was dissolved in chloroform and diluted into 0.1% BSA-saline solution immediately prior to use.
as §2, §3

| SMILES | IC50 [1] | IC50 [2] | IC50 [3] | IC50 [4] | activity at 100 µg/mL [1] | activity at 100 µg/mL [2] | activity at 100 µg/mL [3] |
| --- | --- | --- | --- | --- | --- | --- | --- |
| C=C1CC(COc2cccc3ccc(=O)[nH]c23)(c2ccccc2)OC1=O (stereo not shown) [Compound 6, 8-[(2,3,4,5-Tetrahydro-4-methylene-5-oxo-2-phenyl-2-furanyl)methoxy]-2(1H)-quinolinone] | > 50 µg/mL | 8.3 µg/mL (≈ 23.9 µM) | – | > 50 µg/mL | 54.3 ± 1.3% | 0% | 0% |
| C=C1CC(COc2cccc3cccnc23)(c2ccccc2)OC1=O (stereo not shown) [Compound 8, 8-[(2,3,4,5-Tetrahydro-4-methylene-5-oxo-2-phenyl-2-furanyl)methoxy]quinoline] | 15.8 µg/mL (≈ 47.6 µM) | – | 4.76 µg/mL (≈ 14.4 µM) | 11.1 µg/mL (≈ 33.6 µM) | 0% | 0% | 0% |
| C=C1CC(COc2cccc3cccnc23)(c2ccc(Cl)cc2)OC1=O (stereo not shown) [Compound 9, 8-[(2-(p-Chlorophenyl)-2,3,4,5-tetrahydro-4-methylene-5-oxo-2-furanyl)methoxy]quinoline] | 13.7 µg/mL (≈ 37.4 µM) | – | 5.17 µg/mL (≈ 14.1 µM) | 12.4 µg/mL (≈ 33.8 µM) | 0% | 0% | 0% |
| C=C1CC(COc2cccc3ccc(C)nc23)(c2ccccc2)OC1=O (stereo not shown) [Compound 11, 8-[(2,3,4,5-Tetrahydro-4-methylene-5-oxo-2-phenyl-2-furanyl)methoxy]-2-methylquinoline] | 14.9 µg/mL (≈ 43.1 µM) | – | 5.76 µg/mL (≈ 16.7 µM) | 10.5 µg/mL (≈ 30.5 µM) | 0% | 0% | 0% |
| C=C1CC(COc2cccc3ccc(C)nc23)(c2ccc(Cl)cc2)OC1=O (stereo not shown) [Compound 12, 8-[(2-(p-Chlorophenyl)-2,3,4,5-tetrahydro-4-methylene-5-oxo-2-furanyl)methoxy]-2-methylquinoline] | – | – | – | 10.8 µg/mL (≈ 28.5 µM) | 0% | 0% | 0% |

Further lines, with some results ahead:

| IC50 [1] | IC50 [2] | IC50 [3] | IC50 [4] | SMILES | activity at 100 µg/mL [1] | activity at 100 µg/mL [2] | activity at 100 µg/mL [3] |
| --- | --- | --- | --- | --- | --- | --- | --- |
| > 50 µg/mL | > 50 µg/mL | > 50 µg/mL | > 50 µg/mL | C=C1CC(C)(COc2cc(=O)oc3ccccc23)OC1=O (stereo not shown) [Compound 1, 4-[(2,3,4,5-Tetrahydro-2-methyl-4-methylene-5-oxo-2-furanyl)methoxy]-2H-1-benzopyran-2-one] | 74.4 ± 9.6% | 23.3 ± 12.6% | 8.5 ± 6.9% |
| – | 2.86 µg/mL (≈ 8.21 µM) | – | 36 µg/mL (≈ 103 µM) | C=C1CC(COc2cc(=O)oc3ccccc23)(c2ccccc2)OC1=O (stereo not shown) [Compound 2, 4-[(2,3,4,5-Tetrahydro-4-methylene-5-oxo-2-phenyl-2-furanyl)methoxy]-2H-1-benzopyran-2-one] | 0% | 0% | 0% |
| > 50 µg/mL | 26.1 µg/mL (≈ 91.1 µM) | – | > 50 µg/mL | C=C1CC(C)(COc2ccc3ccc(=O)oc3c2)OC1=O (stereo not shown) [Compound 3, 7-[(2,3,4,5-Tetrahydro-2-methyl-4-methylene-5-oxo-2-furanyl)methoxy]-2H-1-benzopyran-2-one] | 22.8 ± 6.6% | 0% | 0% |
| – | 1.27 µg/mL (≈ 3.65 µM) | – | 5.7 µg/mL (≈ 16.4 µM) | C=C1CC(COc2ccc3ccc(=O)oc3c2)(c2ccccc2)OC1=O (stereo not shown) [Compound 4, 7-[(2,3,4,5-Tetrahydro-4-methylene-5-oxo-2-Phenyl-2-furanyl)methoxy]-2H-1-benzopyran-2-one] | 0% | 0% | 0% |
| – | 10.5 µg/mL (≈ 36.9 µM) | – | – | C=C1CC(C)(COc2cccc3ccc(=O)[nH]c23)OC1=O (stereo not shown) [Compound 5, 8-[(2,3,4,5-Tetrahydro-2-methyl-4-methylene-5-oxo-2-furanyl)methoxy]-2(1H)-quinolinone] | 25.9 ± 0.7% | 0% | 0% |
| > 50 µg/mL | – | 27.2 µg/mL (≈ 101 µM) | 47.9 µg/mL (≈ 178 µM) | C=C1CC(C)(COc2cccc3cccnc23)OC1=O (stereo not shown) [Compound 7, 8-[(2,3,4,5-Tetrahydro-2-methyl-4-methylene-5-oxo-2-furanyl)methoxy]quinoline] | 17.4 ± 7.9% | 0% | 0% |
| > 50 µg/mL | – | 16.2 µg/mL (≈ 57.3 µM) | 39.6 µg/mL (≈ 140 µM) | C=C1CC(C)(COc2cccc3ccc(C)nc23)OC1=O (stereo not shown) [Compound 10, 8-[(2,3,4,5-Tetrahydro-2-methyl-4-methylene-5-oxo-2-furanyl)methoxy]-2-methylquinoline] | 0% | 0% | 0% |
